“Also recorded” adds a separate entry of the source. Like-named read-outs stand apart in the source and are kept apart here. *1 amine or outer side, *2 acyl side, *3 side chain or, on linkers, in order; H or OH if unused. Where a SMILES comes first, the peptide text is derived from it. Bridges are numbered along the chain shown (N, C = ends). [ ]: non-standard residue; d: D form. X1 = CC(C)CCCCCCCCC[C@H](CC(=O)[*:1])O[*:2]
How the values were obtained:
Hst2 [1] = molecular target: T1, Hst2 (Saccharomyces cerevisiae, UniProt P53686); assay: SAR analysis, fluorigenic assay at 50 and 500 μM; type: biochemical; conditions: FIG. 2, 50 μM and 500 μM compound
Text: Structure Activity Relationship (SAR) Analysis.

Hst2 [2] = molecular target: T1, Hst2; assay: IC50 determination, fluorigenic deacetylase assay, Hst2
Experimental: (§1) IC50 Determination. […] The dose-response curves were then fit to one-site competition or sigmoidal-dose response curves as appropriate in [sequence] PRISM (GraphPad Software, La Jolla, Calif.) and the IC50 was determined. Three independent IC50 measurements were performed for each compound and the average and standard deviation are reported.
The resulting deacetylase activity for the three experiments was averaged and reported as a percentage relative to control wells containing no inhibitor.

Hst2 [3] = molecular target: T1, Hst2; assay: Competition assay (inhibition mode versus NAD+ and acetyl-lysine substrate); type: biochemical
Experimental: Competition Assay. […] The fluorigenic assay described above was used with a fixed enzyme concentration of 1 μM. When competition with NAD^+ was being tested, the FLUOR DE LYS-SIRT1 deacetylase substrate was held at a constant concentration of 100 μM and the NAD^+ was titrated from ⅓-5× KmNAD+ (5-80 μM). […] The inhibitors were titrated from ˜½-several times their estimated Ki as indicated. The reaction time was 15 minutes, and each condition was tested in duplicate. The Km, kcat and kcat/Km values were determined by direct fit of the data in SIGMAPLOT (Systat Software, Point Richmond, Calif.) to the Michealis-Menten equation. The Ki and Kis (the slope and intercept inhibition constants, respectively) and the competition type were also determined by a direct fit in SIGMAPLOT to both partial and full competitive, noncompetitive, uncompetitive and mixed competition models. Best-fit models were determined by several statistical methods including R^2, AICs and Sy.x as well as empirical evaluation of α and β values.
To determine the mechanism of inhibition of the compounds identified by HTS and to gain insight as to where these compounds may bind to the enzyme, inhibition modes were determined by varying each of the substrates with the other maintained at a fixed, saturating concentration (Table 11).

full-length human SIRT1 = molecular target: T2, full-length human SIRT1 (Homo sapiens, UniProt Q96EB6); assay: IC50 determination, fluorigenic deacetylase assay, FL SIRT1
T2 sequence (Q96EB6 1-747): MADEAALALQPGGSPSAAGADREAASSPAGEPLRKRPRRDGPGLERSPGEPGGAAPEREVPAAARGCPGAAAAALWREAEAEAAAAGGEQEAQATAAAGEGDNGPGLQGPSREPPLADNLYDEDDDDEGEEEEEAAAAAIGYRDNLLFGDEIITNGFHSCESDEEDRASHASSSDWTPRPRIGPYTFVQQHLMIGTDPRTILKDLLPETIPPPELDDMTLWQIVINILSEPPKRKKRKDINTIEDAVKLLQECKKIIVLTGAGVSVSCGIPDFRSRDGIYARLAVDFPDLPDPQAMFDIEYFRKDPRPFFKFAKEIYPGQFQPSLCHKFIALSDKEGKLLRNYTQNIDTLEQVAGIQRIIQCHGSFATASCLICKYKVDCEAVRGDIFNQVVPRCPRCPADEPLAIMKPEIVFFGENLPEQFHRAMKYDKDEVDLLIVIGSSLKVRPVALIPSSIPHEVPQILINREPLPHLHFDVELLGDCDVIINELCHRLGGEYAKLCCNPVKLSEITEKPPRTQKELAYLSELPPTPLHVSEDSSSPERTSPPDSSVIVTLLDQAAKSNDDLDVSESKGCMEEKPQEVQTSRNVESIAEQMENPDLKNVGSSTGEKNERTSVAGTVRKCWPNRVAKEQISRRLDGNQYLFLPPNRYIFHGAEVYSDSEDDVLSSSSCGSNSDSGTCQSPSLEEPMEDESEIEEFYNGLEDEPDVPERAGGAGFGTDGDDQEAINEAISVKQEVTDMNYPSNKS
Experimental: Cells were harvested and lysed by sonication in buffer containing 50 mM Tris, pH 7.5, 200 mM NaCl, 5 mM imidizole, 10 mM β-mercaptoethanol (BME) and 0.1 mg/mL PMSF. Soluble FL SIRT1 was purified by Ni-NTA (Qiagen, Valencia, Calif.) in a buffer containing 50 mM Tris, pH 7.5, 300 mM NaCl, 10 mM BME, 5% glycerol and 30-600 mM imidizole followed by SUPERDEX-200 gel filtration in buffer containing 50 mM Tris, pH 7.5, 150 mM NaCl, and 10 mM BME. FL SIRT1 eluted between the 670 kDa and 158 kDa globular protein standards. Since SIRT1 is known to aggregate after several days at 4° C., the protein was aliquoted and frozen at −80° C. for use in fluorigenic assays.
as §1

human SIRT2 = molecular target: T3, human SIRT2 (Homo sapiens, UniProt Q8IXJ6); assay: Inhibition assay against human SIRT2 (fluorigenic)
T3 sequence (Q8IXJ6 1-352 isoform Q8IXJ6-2): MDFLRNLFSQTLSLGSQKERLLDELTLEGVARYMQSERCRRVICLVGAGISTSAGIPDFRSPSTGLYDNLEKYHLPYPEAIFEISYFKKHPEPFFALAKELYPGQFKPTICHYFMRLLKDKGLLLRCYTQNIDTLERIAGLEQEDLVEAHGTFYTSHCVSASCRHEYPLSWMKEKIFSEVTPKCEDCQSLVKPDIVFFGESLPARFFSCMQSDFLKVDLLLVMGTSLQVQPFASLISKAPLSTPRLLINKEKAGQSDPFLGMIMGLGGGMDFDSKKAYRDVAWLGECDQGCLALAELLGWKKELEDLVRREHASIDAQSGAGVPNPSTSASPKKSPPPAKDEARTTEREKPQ
Experimental: (§2) Human recombinant SIRT3 was purchased from Enzo Life Sciences.
(§3) Inhibition Assay Against Human SIRT2 and SIRT3. […] Two independent measurements were performed for each compound and the average and standard deviation are reported.

human SIRT3 = molecular target: T4, human SIRT3 (Homo sapiens, UniProt Q9NTG7); assay: Inhibition assay against human SIRT3 (fluorigenic)
T4 sequence (Q9NTG7 1-399): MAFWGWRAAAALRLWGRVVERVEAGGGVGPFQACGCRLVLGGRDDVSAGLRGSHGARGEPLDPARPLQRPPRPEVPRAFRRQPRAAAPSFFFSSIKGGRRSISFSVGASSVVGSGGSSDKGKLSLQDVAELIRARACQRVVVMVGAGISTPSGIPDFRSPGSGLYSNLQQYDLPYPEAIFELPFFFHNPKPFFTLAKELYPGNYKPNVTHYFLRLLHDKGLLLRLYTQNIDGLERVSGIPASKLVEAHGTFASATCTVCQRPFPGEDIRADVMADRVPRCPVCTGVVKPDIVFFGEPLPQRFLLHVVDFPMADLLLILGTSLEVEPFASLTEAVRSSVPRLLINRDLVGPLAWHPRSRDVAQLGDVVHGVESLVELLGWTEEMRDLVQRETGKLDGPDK
Experimental: as §2, §3

[4] = substrate NAD+ varied, acetyl-lysine substrate 100 μM
[5] = substrate acetyl-lysine varied, NAD+ 160 μM
[6] = substrate NAD+ varied, read-out: Ki
[7] = substrate acetyl-lysine varied, read-out: Ki
[8] = read-out: SIRT1 IC50, Table 5, 240 μM NAD+, 200 μM substrate, 1 μM FL SIRT1, 15 min
[9] = read-out: Hst2 IC50, Table 5, 160 μM NAD+, 100 μM substrate, 1 μM Hst2, 15 min
[10] = 50 μM compound, relative to control without inhibitor

T1 sequence (P53686 1-294): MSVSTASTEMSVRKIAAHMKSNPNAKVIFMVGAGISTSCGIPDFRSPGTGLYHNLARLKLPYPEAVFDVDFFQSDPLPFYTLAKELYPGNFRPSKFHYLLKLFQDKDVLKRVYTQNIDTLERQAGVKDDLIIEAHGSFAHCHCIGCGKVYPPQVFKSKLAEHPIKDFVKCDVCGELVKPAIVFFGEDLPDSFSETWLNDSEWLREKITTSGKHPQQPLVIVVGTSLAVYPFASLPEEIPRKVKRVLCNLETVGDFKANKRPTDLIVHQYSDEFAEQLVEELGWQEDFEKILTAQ

## [Ca+2] [Ca^2+]
Hst2 [1]
  inhibition of the Hst2 deacetylase reaction by metal ions (in words): are not

## O=c1[nH]c(=S)[nH]c(-c2ccccc2)c1Cc1c(O)ccc2ccccc12 [Cambinol (4), Cambinol, reference compound]
Hst2 [2]
  IC50: > 1000 µM

## [Cd+2] [Cd^2+]
Hst2 [1]
  inhibition of the Hst2 deacetylase reaction by metal ions (in words): inhibitors

## [Co+2] [Co^2+]
Hst2 [1]
  inhibition of the Hst2 deacetylase reaction by metal ions (in words): inhibitors

## CC(=O)[O][Cd][O]C(C)=O [Compound 11a, cadmium acetate]
Hst2 [2]
  IC50: 1 ± 0.2 µM
Hst2 [2]; Table 5
  IC50 values (range in words): sub-micromolar

## S=c1ccccn1[O][Zn][O]n1ccccc1=S [Compound 11b, zinc pyrithione]
Hst2 [3]; Ki, substrate NAD+ varied
  Ki: 0.26 ± 0.08 µM
Hst2 [3]; Ki, substrate acetyl-lysine varied
  Ki: 0.7 ± 0.1 µM
Hst2 [3]; substrate NAD+ varied
  kcat: 0.0145 ± 0.00083 s⁻¹
Hst2 [3]; [4]
  Inhibition Mechanism: fully mixed
Hst2 [3]; substrate acetyl-lysine varied
  kcat: 0.0217 ± 0.0033 s⁻¹
Hst2 [3]; [5]
  Inhibition Mechanism: fully non-competitive; also recorded: NC (full)
Hst2 [3]; with respect to NAD+
  α (mixed inhibition model): 2.2
Hst2 [2]
  IC50: 0.65 ± 0.05 µM
  IC50 values (range in words): sub-micromolar
full-length human SIRT1
  IC50: 2.7 ± 0.2 µM

## O=C(O)CCN1Cc2ccccc2C1=O [Compound 13a, 3-(1-Oxo-1,3-dihydro-isoindol-2-yl)-propionic acid]
Hst2 [3]; substrate NAD+ varied
  kcat: 0.0122 ± 0.00217 s⁻¹
Hst2 [3]; [4]
  Inhibition Mechanism: fully non-competitive; also recorded: NC (full)
Hst2 [3]; [6]
  Ki: 30 ± 6 µM
Hst2 [3]; substrate acetyl-lysine varied
  kcat: 0.0167 ± 0.0017 s⁻¹
Hst2 [3]; [5]
  Inhibition Mechanism: fully non-competitive; also recorded: NC (full)
Hst2 [3]; [7]
  Ki: 39 ± 7 µM
Human SIRT2; 50 or 100 μM compound
  inhibitory activity against human SIRT2 (in words): only weak inhibitory activity
Human SIRT2; read-out: percent of residual enzyme activity, SIRT2
  remaining activity at 50 µM: 89 ± 1.8%
Human SIRT3; 50 or 100 μM compound
  inhibitory activity against human SIRT3 (in words): only weak inhibitory activity
Human SIRT3; read-out: percent of residual enzyme activity, SIRT3
  remaining activity at 50 µM: 91 ± 4.3%
Hst2 [2]; Table 5
  IC50 values (range in words): low micromolar
full-length human SIRT1; [8]
  IC50: 80 ± 5 µM

## C[S+]([O-])CCC(C(=O)O)N1C(=O)c2ccccc2C1=O (stereo not drawn) [Compound 0032]
Hst2 [2]; Table 10, Hst2
  IC50: No Inh.

## CC(C)C(=O)CCN1C(=O)c2ccccc2C1=O [Compound 04265]
Hst2 [2]; Table 10, Hst2
  IC50: No Inh.

## O=C(O)CCN1C(=O)c2cc(Cl)c(Cl)cc2C1=O [Compound 39008]
Hst2 [2]; Table 10, Hst2
  IC50: No Inh.

## Nc1ccc2c(c1)C(=O)N(CCC(=O)O)C2 [Compound 42071]
Hst2 [2]; Table 10, Hst2
  IC50: No Inh.

## O=C(O)CCN1C(=O)c2ccc(-c3nc4ccccc4c(=O)o3)cc2C1=O [Compound 47054]
Hst2 [2]; Table 10, Hst2
  IC50: No Inh.

## O=C1c2ccccc2C(=O)N1CCBr [Compound 91032]
Hst2 [2]; Table 10, Hst2
  IC50: No Inh.

## O=C(O)CCCN1C(=O)c2ccccc2C1=O [Compound 427032]
Hst2 [2]; Table 10, Hst2
  IC50: No Inh.

## [Cu+] [Cu^1+]
Hst2 [1]
  inhibition of the Hst2 deacetylase reaction by metal ions (in words): inhibited Hst2 to similar extents

## [Fe+2] [Fe^2+]
Hst2 [1]
  inhibition of the Hst2 deacetylase reaction by metal ions (in words): inhibited Hst2 to similar extents

## [Hg+2] [Hg^2+]
Hst2 [1]
  inhibition of the Hst2 deacetylase reaction by metal ions (in words): inhibitors

## [Mg+2] [Mg^2+]
Hst2 [1]
  inhibition of the Hst2 deacetylase reaction by metal ions (in words): are not

## [Ni+2] [Ni^2+]
Hst2 [1]
  inhibition of the Hst2 deacetylase reaction by metal ions (in words): inhibitors

## Cn1cc(C2=C(c3cn(CCCSC(=N)N)c4ccccc34)C(=O)NC2=O)c2ccccc21 [Ro 31-8220 (6), Ro 31-8220, reference compound]
Hst2 [2]; [9]
  IC50: 20 ± 0.9 µM

## CC(NC(=O)c1ccccc1/N=C/c1c(O)ccc2ccccc12)c1ccccc1 (stereo not drawn) [Sirtinol (2), Sirtinol, reference compound]
Hst2 [2]; [9]
  IC50: 48 ± 11 µM

## O=C1CCc2c(ccc3ccccc23)O1 [Splitomycin (3), Splitomycin, reference compound]
Hst2 [2]; [9]
  IC50: > 600 µM

## Cc1ccc(C(=O)Nc2ccc(S(=O)(=O)O)c3cc(S(=O)(=O)O)cc(S(=O)(=O)O)c23)cc1NC(=O)c1cccc(NC(=O)Nc2cccc(C(=O)Nc3cc(C(=O)Nc4ccc(S(=O)(=O)O)c5cc(S(=O)(=O)O)cc(S(=O)(=O)O)c45)ccc3C)c2)c1 [Suramin (8), Suramin, reference compound]
Hst2 [2]; [9]
  IC50: 240 ± 70 µM

## CC(C)CCCCCCCCC[C@@H]1CC(=O)N[C@@H](CCC(=O)O)C(=O)N[C@@H](CC(C)C)C(=O)N[C@H](CC(C)C)C(=O)N[C@@H](C(C)C)C(=O)N[C@@H](CC(=O)O)C(=O)N[C@H](CC(C)C)C(=O)N[C@@H](CC(C)C)C(=O)O1 [Surfactin (7), Surfactin, reference compound] (EL[dL]VD[dL]L; linker N-C via X1)
Hst2 [2]
  IC50: > 700 µM
full-length human SIRT1
  IC50: > 600 µM

## CN(C)CCCCC(=O)Nc1ccc(NC(=S)NC(=O)c2ccc(C(C)(C)C)cc2)cc1 [Tenovin-6 (5), Tenovin-6, reference compound]
Hst2 [2]; [9]
  IC50: > 600 µM

## [Zn+2] [Zn^2+]
Hst2 [1]
  inhibition of the Hst2 deacetylase reaction by metal ions (in words): inhibitors

## hexachlorophene [Compound 14a]
Hst2 [3]; substrate NAD+ varied
  kcat: 0.00933 ± 0.0013 s⁻¹
Hst2 [3]; [4]
  Inhibition Mechanism: fully non-competitive; also recorded: NC (full)
Hst2 [3]; [6]
  Ki: 3.9 ± 0.7 µM
Hst2 [3]; substrate acetyl-lysine varied
  kcat: 0.0222 ± 0.0015 s⁻¹
Hst2 [3]; [5]
  Inhibition Mechanism: fully mixed
Hst2 [3]; [7]
  Ki: 2.5 ± 1 µM
Hst2 [3]; with respect to the acetyl-lysine substrate
  α (mixed inhibition model): 13.4
Human SIRT2; [10]
  percent of residual enzyme activity, SIRT2: 18.5 ± 0.8%
Human SIRT2; read-out: apparent IC50, SIRT2, estimated from single concentration
  potency estimated from few doses: < 50 µM
Human SIRT3; [10]
  percent of residual enzyme activity, SIRT3: 39.5 ± 1.6%
Human SIRT3; read-out: apparent IC50, SIRT3, estimated from single concentration
  potency estimated from few doses: < 50 µM
Hst2 [2]; Table 4, Hst2
  IC50: 12.5 ± 0.6 µM
Hst2 [2]; Table 5
  IC50 values (range in words): low micromolar
Hst2 [2]; [9]
  IC50: 12.5 ± 0.6 µM
full-length human SIRT1; [8]
  IC50: 34 ± 10 µM
